Measured values from patent US20230081426A1, “COMPOUNDS AND METHODS FOR KRAS MODULATION AND INDICATIONS THEREFOR” (Plexxikon Inc., priority 2020, published 2023).

What was measured:
[1] = biological target: T1, G12D-mutant human KRAS (amino acid residues 1-188) (Homo sapiens, UniProt P01116, G12D); experiment: KRAS Binding Disruption Assay (AlphaScreen; biotinylated KRpep-2d analogue or RAF1-RBD), G12D; conditions: KRAS G12D; geometric mean; read-out: KRAS GMean IC50 (uM) MUTATION: G12D
T1 construct: G12D or G12C-mutant human KRAS (amino acid residues 1-188) with FLAG tag; made in house; host or cells: E. coli
In short: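 Displacement format with mutant KRAS, biotinylated KRpep-2d analogue or RAF1-RBD (5-20 nM each) at pH 7.5 with 5 mM MgCl2.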

[2] = biological target: T2, G12C-mutant human KRAS (amino acid residues 1-188) (Homo sapiens, UniProt P01116, G12C); experiment: KRAS Binding Disruption Assay (AlphaScreen; biotinylated KRpep-2d analogue or RAF1-RBD), G12C; conditions: geometric mean, read-out: KRAS GMean IC50 (uM) MUTATION: G12C
T2 construct: G12D or G12C-mutant human KRAS (amino acid residues 1-188) with FLAG tag; made in house; host or cells: E. coli
Description: Compound binding disrupts the interaction of KRpep-2d or RAF1-RBD with KRAS, leading to a decrease in Alpha signal.
All assay components were prepared in 20 mM HEPES (pH 7.5), 100 mM NaCl, 5 mM MgCl2, 0.01% Tween-20, and 0.01% BSA. Biotinylated analogues of KRpep-2d were custom synthesized. The binding disruption assays were performed using 5-20 nM of mutant KRAS and 5-20 nM of either biotinylated KRpep-2d analogue or RAF1-RBD. 19 μL of KRAS protein and 4 μL of biotinylated KRpep-2d or RAF1-RBD were added to the wells of a 384-well plate containing 1 μL of various concentrations of test compound or DMSO vehicle. 16 wells containing KRAS, biotinylated KRpep-2d or RAF1-RBD, and 5% DMSO served as high controls. 16 wells containing KRAS only and 5% DMSO served as low controls. Binding reactions were incubated for 1 hour at 25° C., then Anti-Flag Acceptor and Streptavidin Donor Alpha beads were added at a final concentration of 10 μg/mL for an additional hour at room temperature. Alpha signal was read out on a Perkin Elmer Envision HTS instrument. The percentage inhibition at individual compound concentrations relative to high and low controls was calculated. The data were analyzed by using nonlinear regression to generate IC50 values.

T1 sequence (P01116 1-188 isoform P01116-2 G12D): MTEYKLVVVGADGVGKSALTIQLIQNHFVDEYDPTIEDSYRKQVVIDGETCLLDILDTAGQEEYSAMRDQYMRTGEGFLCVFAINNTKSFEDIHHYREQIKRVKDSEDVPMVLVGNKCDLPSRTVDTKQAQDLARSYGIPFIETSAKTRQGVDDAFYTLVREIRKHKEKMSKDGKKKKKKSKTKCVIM
T2 sequence (P01116 1-188 isoform P01116-2 G12C): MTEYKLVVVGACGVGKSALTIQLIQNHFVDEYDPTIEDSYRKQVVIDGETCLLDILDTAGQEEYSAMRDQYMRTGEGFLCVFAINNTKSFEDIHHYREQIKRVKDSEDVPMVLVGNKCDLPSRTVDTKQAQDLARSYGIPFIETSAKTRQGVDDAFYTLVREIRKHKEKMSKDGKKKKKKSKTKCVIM

Row | Compound | IC50 [1] [µM] | IC50 [2] [µM]
1 | CN1CCC[C@H]1COc1nc(N2C[C@H]3CC[C@@H](C2)N3S(N)(=O)=O)c2ccc(-c3cc(O)cc4ccccc34)c(F)c2n1 [P-0663, (1R,5S)-3-(8-fluoro-7-(3-hydroxynaphthalen-1-yl)-2-(((S)-1-methylpyrrolidin-2-yl)methoxy)quinazolin-4-yl)-3,8-diazabicyclo[3.2.1]octane-8-sulfonamide] | 0.0001 to 10 | 0.0001 to 10
2 | N#Cc1cccc2[nH]cc(-c3ccc4c(N5C[C@H]6CC[C@@H](C5)N6)nc(OCC56CCCN5CCC6)nc4c3F)c12 [P-0666, 3-(4-((1R,5S)-3,8-diazabicyclo[3.2.1]octan-3-yl)-8-fluoro-2-((tetrahydro-1H-pyrrolizin-7a(5H)-yl)methoxy)quinazolin-7-yl)-1H-indole-4-carbonitrile] | 0.0001 to 10 | 0.0001 to 10
3 | CCN1CCC[C@H]1COc1nc(N2C[C@H]3CC[C@@H](C2)N3)c2ccc(-c3cc(O)cc4ccccc34)c(F)c2n1 [P-0667, 4-(4-((1R,5S)-3,8-diazabicyclo[3.2.1]octan-3-yl)-2-(((S)-1-ethylpyrrolidin-2-yl)methoxy)-8-fluoroquinazolin-7-yl)naphthalen-2-ol] | 0.0001 to 10 | 0.0001 to 10
4 | Oc1cc(-c2ccc3c(N4C[C@H]5CC[C@@H](C4)N5)nc(CNC4CC(O)C4)nc3c2)c2ccccc2c1 (stereo partly drawn) [P-0670, 4-(4-((1R,5S)-3,8-diazabicyclo[3.2.1]octan-3-yl)-2-(((3-hydroxycyclobutyl)amino)methyl)quin-azolin-7-yl)naphthalen-2-ol] | 0.0001 to 10 | 100 to 1000
5 | Oc1cc(-c2ccc3c(N4C[C@H]5CC[C@@H](C4)N5)nc(CN[C@H]4CCOC4)nc3c2)c2ccccc2c1 [P-0671, 4-(4-((1R,5S)-3,8-diazabicyclo[3.2.1]octan-3-yl)-2-((((S)-tetrahydrofuran-3-yl)amino)methyl)quinazolin-7-yl)naphthalen-2-ol] | 0.0001 to 10 | 10 to 100
6 | Oc1cc(-c2ccc3c(N4CC5CCC(C4)N5)nc(CN[C@@H]4CCC[C@H]4O)nc3c2)c2ccccc2c1 [P-0672, 4-(4-((1R,5S)-3,8-diazabicyclo[3.2.1]octan-3-yl)-2-((((1R,2R)-2-hydroxycyclopentyl)amino)methyl)quin-azolin-7-yl)naphthalen-2-ol] | 0.0001 to 10 | 10 to 100
7 | Oc1cc(-c2ccc3c(N4C[C@H]5CC[C@@H](C4)N5)nc(CNC4CC4)nc3c2)c2ccccc2c1 [P-0673, 4-(4-((1R,5S)-3,8-diazabicyclo[3.2.1]octan-3-yl)-2-((cyclopropylamino)methyl)quinazolin-7-yl)naphthalen-2-ol] | 0.0001 to 10 | 10 to 100
8 | NCCCN1CCC[C@H]1COc1nc(N2C[C@H]3CC[C@@H](C2)N3)c2ccc(-c3cc(O)cc4ccccc34)c(F)c2n1 [P-0675, 4-(2-(((S)-1-(3-aminopropyl)pyrrolidin-2-yl)methoxy)-4-((1R,5S)-3,8-diazabicyclo[3.2.1]octan-3-yl)-8-fluoroquinazolin-7-yl)naphthalen-2-ol] | 0.0001 to 10 | 0.0001 to 10
9 | O=C(NCCCN1CCC[C@H]1COc1nc(N2C[C@H]3CC[C@@H](C2)N3)c2ccc(-c3cc(O)cc4ccccc34)c(F)c2n1)OCc1ccccc1 [P-0676, benzyl (3-((S)-2-(((4-((1R,5S)-3,8-diazabicyclo[3.2.1]octan-3-yl)-8-fluoro-7-(3-hydroxynaphthalen-1-yl)quinazolin-2-yl)oxy)methyl)pyrrolidin-1-yl)propyl)carbamate] | 0.0001 to 10 | 10 to 100
10 | O=C(OCc1ccccc1)N1CCC[C@H]1COc1nc(N2C[C@H]3CC[C@@H](C2)N3)c2ccc(-c3cc(O)cc4ccccc34)c(F)c2n1 [P-0677, benzyl (S)-2-(((4-((1R,5S)-3,8-diazabicyclo[3.2.1]octan-3-yl)-8-fluoro-7-(3-hydroxynaphthalen-1-yl)quinazolin-2-yl)oxy)methyl)pyrrolidine-1-carboxylate] | 0.0001 to 10 | 10 to 100
11 | Fc1ccc2[nH]cc(-c3ccc4c(N5C[C@H]6CC[C@@H](C5)N6)nc(OCC56CCCN5CCC6)nc4c3F)c2c1Cl [P-0678, 4-((1R,5S)-3,8-diazabicyclo[3.2.1]octan-3-yl)-7-(4-chloro-5-fluoro-1H-indol-3-yl)-8-fluoro-2-((tetrahydro-1H-pyrrolizin-7a(5H)-yl)methoxy)quinazoline] | 0.0001 to 10 | 0.0001 to 10
12 | Fc1cc2c(N3C[C@H]4CC[C@@H](C3)N4)nc(OCC34CCCN3CCC4)nc2c(F)c1-c1c[nH]c2ccc(F)c(Cl)c12 [P-0679, 4-((1R,5S)-3,8-diazabicyclo[3.2.1]octan-3-yl)-7-(4-chloro-5-fluoro-1H-indol-3-yl)-6,8-difluoro-2-((tetrahydro-1H-pyrrolizin-7a(5H)-yl)methoxy)quinazoline] | 0.0001 to 10 | 0.0001 to 10
13 | O=C1CCC2(CN(c3nc(N4C[C@H]5CC[C@@H](C4)N5)c4ccc(-c5cc(O)cc6ccccc56)c(F)c4n3)C2)N1 [P-0680, 2-(4-((1R,5S)-3,8-diazabicyclo[3.2.1]octan-3-yl)-8-fluoro-7-(3-hydroxynaphthalen-1-yl)quinazolin-2-yl)-2,5-diazaspiro[3.4]octan-6-one] | 0.0001 to 10 | 100 to 1000
14 | Oc1cc(-c2ccc3c(N4C[C@H]5CC[C@@H](C4)N5)nc(NCC4(O)CCC4)nc3c2F)c2ccccc2c1 [P-0681, 4-(4-((1R,5S)-3,8-diazabicyclo[3.2.1]octan-3-yl)-8-fluoro-2-(((1-hydroxycyclobutyl)methyl)amino)quin-azolin-7-yl)naphthalen-2-ol] | 0.0001 to 10 | 100 to 1000
15 | Oc1cc(-c2ccc3c(N4C[C@H]5CC[C@@H](C4)N5)nc(N4CC5(CCCN5)C4)nc3c2F)c2ccccc2c1 [P-0682, 4-(4-((1R,5S)-3,8-diazabicyclo[3.2.1]octan-3-yl)-8-fluoro-2-(2,5-diazaspiro[3.4]octan-2-yl)quinazolin-7-yl)naphthalen-2-ol] | 0.0001 to 10 | 10 to 100
16 | CC(C)(O)C1CN(c2nc(N3C[C@H]4CC[C@@H](C3)N4)c3ccc(-c4cc(O)cc5ccccc45)c(F)c3n2)C1 [P-0683, 4-(4-((1R,5S)-3,8-diazabicyclo[3.2.1]octan-3-yl)-8-fluoro-2-(3-(2-hydroxypropan-2-yl)azetidin-1-yl)quinazolin-7-yl)naphthalen-2-ol] | 0.0001 to 10 | 100 to 1000
17 | CN1CCN(c2nc(N3C[C@H]4CC[C@@H](C3)N4)c3ccc(-c4cc(O)cc5ccccc45)c(F)c3n2)CC1 [P-0684, 4-(4-((1R,5S)-3,8-diazabicyclo[3.2.1]octan-3-yl)-8-fluoro-2-(4-methylpiperazin-1-yl)quinazolin-7-yl)naphthalen-2-ol] | 0.0001 to 10 | 100 to 1000
18 | Oc1cc(-c2ccc3c(N4C[C@H]5CC[C@@H](C4)N5)nc(N4C[C@@H](O)[C@H](O)C4)nc3c2F)c2ccccc2c1 [P-0685, (3R,4R)-1-(4-((1R,5S)-3,8-diazabicyclo[3.2.1]octan-3-yl)-8-fluoro-7-(3-hydroxynaphthalen-1-yl)quinazolin-2-yl)pyrrolidine-3,4-diol] | 0.0001 to 10 | 10 to 100
19 | OCC1(CO)CN(c2nc(N3C[C@H]4CC[C@@H](C3)N4)c3ccc(-c4cc(O)cc5ccccc45)c(F)c3n2)C1 [P-0686, (1-(4-((1R,5S)-3,8-diazabicyclo[3.2.1]octan-3-yl)-8-fluoro-7-(3-hydroxynaphthalen-1-yl)quinazolin-2-yl)azetidine-3,3-diyl)dimethanol] | 0.0001 to 10 | 100 to 1000
20 | Oc1cc(-c2ccc3c(N4C[C@H]5CC[C@@H](C4)N5)nc(N4C[C@@H](O)[C@@H](O)C4)nc3c2F)c2ccccc2c1 [P-0687, (3S,4R)-1-(4-((1R,5S)-3,8-diazabicyclo[3.2.1]octan-3-yl)-8-fluoro-7-(3-hydroxynaphthalen-1-yl)quinazolin-2-yl)pyrrolidine-3,4-diol] | 0.0001 to 10 | 100 to 1000
21 | Oc1cc(-c2ccc3c(N4CC5CCC(C4)N5)nc(OCC4CCCC4O)nc3c2F)c2ccccc2c1 [P-0688, 4-(4-((1R,5S)-3,8-diazabicyclo[3.2.1]octan-3-yl)-8-fluoro-2-((2-hydroxycyclopentyl)methoxy)quinazo-lin-7-yl)naphthalen-2-ol] | 0.0001 to 10 | 10 to 100
22 | Oc1cc(-c2ccc3c(N4C[C@H]5CC[C@@H](C4)N5)nc(OCCn4cncn4)nc3c2F)c2ccccc2c1 [P-0689, 4-(2-(2-(1H-1,2,4-triazol-1-yl)ethoxy)-4-((1R,5S)-3,8-diazabicyclo[3.2.1]octan-3-yl)-8-fluoroquinazolin-7-yl)naphthalen-2-] | 0.0001 to 10 | 10 to 100
23 | Oc1cc(-c2ccc3c(N4C[C@H]5CC[C@@H](C4)N5)nc(OCCn4cccn4)nc3c2F)c2ccccc2c1 [P-0690, 4-(2-(2-(1H-pyrazol-1-yl)ethoxy)-4-((1R,5S)-3,8-diazabicyclo[3.2.1]octan-3-yl)-8-fluoroquinazolin-7-yl)naphthalen-2-ol] | 0.0001 to 10 | 10 to 100
